Laboratory results as given in PMC6268773, “Aminodi(hetero)arylamines in the Thieno[3,2-b]pyridine Series: Synthesis, Effects in Human Tumor Cells Growth, Cell Cycle Analysis, Apoptosis and Evaluation of Toxicity Using Non-Tumor Cells” (Molecules, 2012).

Experiments:
[1] = test system: MCF-7 (breast adenocarcinoma); experiment: SRB cell growth inhibition assay, MCF-7; format: cell-based; settings: Homo sapiens, MCF7, MCF-7, 48h continuous treatment, mean ± SD, n = 3
Description: (§1) The effects of the aminodi(hetero)arylamines in the growth of four human tumour cell lines (MCF-7, A375-C5, NCI-H460 and HepG2) were evaluated using the SRB assay. Doxorubicin and ellipticine were used as positive controls. Furthermore, to investigate the possible toxicity of the compounds, the in vitro cell growth inhibition assay (SRB) was also performed using porcine liver non-tumor cells (PLP1) established by us.
(§2) Four human tumor cell lines, MCF-7 (breast adenocarcinoma), A375-C5 (melanoma), NCI-H460 (non-small cell lung cancer) and HepG2 (hepatocellular carcinoma) were used. MCF-7, A375-C5 and HepG2 were obtained from the European Collection of Cell Cultures (ECACC, Salisbury, UK) and NCI-H460 was kindly provided by the National Cancer Institute (NCI, Bethesda, MD, USA). Cells were routinely maintained as adherent cell cultures in RPMI-1640 medium supplemented with 5% FBS (MCF-7, NCI-H460 and A375-C5 cells) or in DMEM supplemented with 10% FBS, 2 mM glutamine, 100 U/mL penicillin and […] streptomycin (HepG2 cells), at 37 °C in a humidified atmosphere containing 5% CO2.
(§3) The effects of the compounds on the in vitro growth of human tumor cell lines and non-tumor porcine liver primary cells were evaluated according to the procedure adopted by the NCI (USA) in their “In vitro Anticancer Drug Discovery Screen”, using the SRB assay to assess cell growth.
(§4) For the cell lines, exponentially growing cells were obtained by plating 1.5 × 10^5 cells/mL for MCF-7, 0.75 × 10^5 cells/mL for A375-C5 and NCI-H460, and 5.0 × 10^5 cells/mL for HepG2, followed by 24 h of incubation. For the primary porcine liver cells, cells were incubated in 96-well plates at a density of 5.0 × 10^5 cells/mL, and cultivated in DMEM medium with 10% FBS, 100 U/mL penicillin and […] streptomycin.
(§5) Following a 24 h period to allow cells to adhere, cells were treated for 48 h with six serial dilutions of each test compound, starting from a maximum concentration of 125 µM. Following the 48 h treatment period, adherent cells were fixed in situ, washed and stained with SRB. The bound stain was solubilized and the absorbance was measured at 492 nm in the case of MCF-7, NCI-H460 and A375-C5 cells and at 515 nm in the case od HepG2 and PLP1 primary cells, in a plate reader (Biotek Instruments Inc., Powerwave XS, Bedfordshire, UK). Dose response curves were obtained and the concentration of the diarylamine that inhibited 50% of the net cell growth (GI50) was calculated as described elsewhere. Doxorubicin and ellipticine were used as positive controls of cell growth inhibition.

A375-C5 (melanoma) = experiment: SRB cell growth inhibition assay, A375-C5; format: cell-based; settings: Homo sapiens, A375-C5, 48h continuous treatment, mean ± SD, n = 3
Description: as §1, §2, §3, §4, §5

[2] = test system: NCI-H460 (non-small cell lung cancer); experiment: SRB cell growth inhibition assay, NCI-H460; format: cell-based; settings: Homo sapiens, NCI-H460, 48h continuous treatment, mean ± SD, n = 3
Description: as §1, §2, §3, §4, §5

[3] = test system: HepG2 (hepatocellular carcinoma); experiment: SRB cell growth inhibition assay, HepG2; format: cell-based; settings: Homo sapiens, HepG2, 48h continuous treatment, mean ± SD, n = 3
Description: as §1, §2, §3, §4, §5

[4] = SRB toxicity assay in non-tumor porcine liver primary cells; format: cell-based; settings: pig, porcine liver primary cell culture (PLP1), non-tumor, PLP1 non-tumor porcine liver cells, 48h continuous treatment, SRB, mean ± SD, n = 3
Description: as §1
(§6) Porcine liver primary cell culture (PLP1) was prepared from freshly harvested porcine liver, obtained from a local slaughter house. Briefly, the liver tissue was rinsed in HBSS solution containing 100 U/mL penicillin, 100 µg/mL streptomycin and divided into 1 × 1 mm^3 explants. Some of these explants were placed in 25 cm^2 tissue flasks in DMEM medium supplemented with 10% FBS, 2 mM nonessential amino acids, 100 U/mL penicillin and […] streptomycin. This cell culture was maintained according to the procedure described previously by us.
as §3, §4, §5

[5] = test system: porcine liver primary cell culture (PLP1); experiment: SRB toxicity assay in non-tumor porcine liver primary cells; format: cell-based
Description: as §1, §6, §3, §4, §5

NCI-H460 cells [6] = experiment: Cell cycle distribution profile by flow cytometry (propidium iodide); format: cell-based, human; settings: NCI-H460, compound at GI50 concentration (1.4 μM), 48 h
Description: NCI-H460 cells were plated in 6-well plates at a final density of 1.5 × 10^5 cells/well and incubated at 37 °C for 24 h. […] As controls, cells were also incubated with medium only (blank) and with the compound’s vehicle (DMSO). Following 48 h of treatment, cells were fixed overnight in ice-cold 70% ethanol and re-suspended in PBS containing 0.1 mg/mL RNase A and 5 µg/mL propidium iodide. Cellular DNA content was analysed by flow cytometry using an Epics XL-MCL Coulter Flow cytometer (Brea, CA, USA) plotting at least 20,000 events per sample, as previously described. The analysis of cell cycle distribution was subsequently performed using the FlowJo 7.2 software (Tree Star, Inc., Ashland, USA) after cell debris and aggregates exclusion.

NCI-H460 cells [7] = experiment: Apoptosis by flow cytometry (Annexin V-FITC/PI); format: cell-based, human; settings: NCI-H460, compound at GI50 concentration (1.4 μM), 48 h, Annexin V/Propidium iodide
Description: Following 48 h treatment of NCI-H460 cells with compound 3c, as described above, the levels of apoptosis were analysed by flow cytometry using the Human Annexin V-FITC/PI apoptosis kit (Bender MedSystems, Vienna, Austria), according to the manufacturer’s instructions. Flow cytometry was carried out using an Epics XL-MCL Coulter flow cytometer plotting at least 20,000 events per sample, as previously described. The data was analysed using the FlowJo 7.2 software (Tree Star, Inc.).

[8] = test system: human tumor cell lines MCF-7, A375-C5, NCI-H460 and HepG2; experiment: SRB cell growth inhibition, all tested human tumor cell lines (summary); format: cell-based; settings: span over MCF-7, A375-C5, NCI-H460, HepG2, 48 h
Description: as §1, §3
For the cell lines, exponentially growing cells were obtained by plating 1.5 × 10^5 cells/mL for MCF-7, 0.75 × 10^5 cells/mL for A375-C5 and NCI-H460, and 5.0 × 10^5 cells/mL for HepG2, followed by 24 h of incubation. […]
Following a 24 h period to allow cells to adhere, cells were treated for 48 h with six serial dilutions of each test compound, starting from a maximum concentration of 125 µM. […] The bound stain was solubilized and the absorbance was measured at 492 nm in the case of MCF-7, NCI-H460 and A375-C5 cells and at 515 nm in the case od HepG2 and PLP1 primary cells, in a plate reader (Biotek Instruments Inc., Powerwave XS, Bedfordshire, UK). […]

GI50 [1] | GI50 (A375-C5 (melanoma)) | GI50 [2] | GI50 [3] | melting point | Structure (SMILES) | GI50 at 48 h [4] | other results
> 125 µM | 112 ± 5 µM | > 125 µM | > 125 µM | – | COC(=O)c1sc2cccnc2c1Nc1ccc(N)cc1 [3a, Methyl 3-(4-aminophenylamino)thieno[3,2-b]pyridine-2-carboxylate] | > 125 µM | –
33.8 ± 1.7 µM | 26 ± 2.3 µM | 31.3 ± 2.9 µM | 99.26 ± 0.92 µM | 204 to 206 °C | COC(=O)c1sc2cccnc2c1Nc1ccccc1N [3b, Methyl 3-(2-aminophenylamino)thieno[3,2-b]pyridine-2-carboxylate] | 61.3 µM | –
– | – | – | – | 203 to 205 °C | COC(=O)c1sc2cccnc2c1Nc1ccc([N+](=O)[O-])cc1 [2a, Methyl 3-(4-nitrophenylamino)thieno[3,2-b]pyridine-2-carboxylate] | – | –
– | – | – | – | 213 to 214 °C | COC(=O)c1sc2cccnc2c1Nc1ccc(OC)cc1[N+](=O)[O-] [2c, Methyl 3-(4-methoxy-2-nitrophenylamino)thieno[3,2-b]pyridine-2-carboxylate] | – | –
1.4 ± 0.2 µM | 1.3 ± 0.1 µM | 1.4 ± 0.4 µM | 1.63 ± 0.09 µM | 172 to 174 °C | COC(=O)c1sc2cccnc2c1Nc1ccc(OC)cc1N [3c, Methyl 3-(2-amino-4-methoxhyphenylamino)thieno[3,2-b]pyridine-2-carboxylate] | 12.5 µM | toxicity to non-tumor cells (in words) ([5]; PLP1, at the GI50 concentrations found in tumor cell lines / versus ellipticine): did not show toxicity; percentage of cells in the G0/G1 phase of the cell cycle (in words) (NCI-H460 cells [6]): significant decrease; % of cells in the sub-G1 peak (in words) (NCI-H460 cells [6]; data not shown): significantly increased; percentage of apoptotic cells (NCI-H460 cells [7]): 36.6 ± 4.8%; GI50 [8]: < 2 µM
0.04 ± 0.01 µM | 0.13 ± 0.01 µM | 0.09 ± 0.01 µM | – | – | COc1cccc2c1C(=O)c1c(O)c3c(c(O)c1C2=O)C[C@@](O)(C(=O)CO)C[C@@H]3O[C@H]1C[C@H](N)[C@H](O)[C@H](C)O1 [Doxorubicin, reference compound] | – | –
– | – | – | – | 202 to 204 °C | COC(=O)c1sc2cccnc2c1Nc1ccccc1[N+](=O)[O-] [2b, Methyl 3-(2-nitrophenylamino)thieno[3,2-b]pyridine-2-carboxylate] | – | –

Structure (SMILES) | GI50 [1] | GI50 (A375-C5 (melanoma)) | GI50 [2] | GI50 [3] | melting point | GI50 at 48 h [4] | other results
Cc1c2ccncc2c(C)c2c1[nH]c1ccccc12 [Ellipticine, reference compound] | – | – | – | 0.8 ± 0.05 µM | – | 4 µM | GI50 ([5]; PLP1 non-tumor porcine liver cells, 48h continuous treatment, SRB, mean ± SD, n = 3): 4.19 µM
